# Measured values published in patent US20060069132A1, “Azolecarboxamide herbicides” (priority 2004, published 2006).
# Columns and labels:
# [1] = tested on: large crabgrass; assay: Test A pre-/postemergence herbicide test; type: in vivo, Digitaria sanguinalis
# Summary of the method: (§1)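 Plants are held in greenhouse about ten days after treatment, then compared with untreated controls and scored 0 (no effect) to 100 (complete control). Preemergence dosing is a directed soil spray on sown sandy loam; postemergence dosing is spray to runoff at 2–10 cm height.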
# [2] = tested on: morningglory; assay: Test A pre-/postemergence herbicide test; type: in vivo, Ipomoea spp.
# Summary of the method: as §1
# [3] = tested on: blackgrass; assay: Test B postemergence herbicide test; type: in vivo, Alopecurus myosuroides; details: postemergence, visual rating, scale 0 (no effect) to 100 (complete control)
# Summary of the method: (§2)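 After treating 2-leaf paddy plants or 2–18 cm postemergence plants (1 to 4 leaves) with formulated chemical, researchers kept them in a greenhouse for 13–15 days. Effects were judged visually versus controls: 0 indicates none, 100 total control.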
# [4] = tested on: rice; assay: Test B flooded paddy test; type: in vivo, Oryza sativa; details: 1000 g ai/ha, visual rating, scale 0 to 100 (0 no effect, 100 complete control), 13 to 15 days
# Summary of the method: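 Formulated test chemicals went onto postemergence plants measuring 2 to 18 cm, at one to four leaves. For the paddy assay, species had reached two leaves. Scoring took place 13–15 days later by eye, relative to untreated plants, using 0 for no effect up to 100 for full control.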
# [5] = tested on: lambsquarters; assay: Test B pre-/postemergence herbicide test; type: in vivo, Chenopodium album; details: for Lambsquarters plant response rating: postemergence, visual rating, scale 0 (no effect) to 100 (complete control)
# Summary of the method: (§3)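 Plants compared with untreated controls 13–15 days post-treatment and given a visual 0–100 injury score. Applications: preemergence to seeds; postemergence at 1- to 4-leaf (2–18 cm); paddy species flooded, 2-leaf stage. Vehicle non-phytotoxic, surfactant included.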
# [6] = tested on: small flower umbrella sedge; assay: Test B flooded paddy test; type: in vivo, Cyperus difformis; details: 1000 g ai/ha, visual rating, scale 0 to 100 (0 no effect, 100 complete control), 13 to 15 days
# Summary of the method: as §2
# [7] = tested on: barnyardgrass; assay: Test A pre-/postemergence herbicide test; type: in vivo, Echinochloa crus-galli
# Summary of the method: as §1
# [8] = tested on: pigweed; assay: Test B pre-/postemergence herbicide test; type: in vivo, Amaranthus retroflexus; details: for Pigweed plant response rating: postemergence, visual rating, scale 0 (no effect) to 100 (complete control)
# Summary of the method: as §3
# [9] = tested on: barnyardgrass; assay: Test B flooded paddy test; type: in vivo, Echinochloa crus-galli; details: 1000 g ai/ha, visual rating, scale 0 to 100 (0 no effect, 100 complete control), 13 to 15 days
# Summary of the method: as §2
# [10] = tested on: velvetleaf; assay: Test A pre-/postemergence herbicide test; type: in vivo, Abutilon theophrasti
# Summary of the method: as §1
# [11] = tested on: ducksalad; assay: Test B flooded paddy test; type: in vivo, Heteranthera limosa; details: 1000 g ai/ha, visual rating, scale 0 to 100 (0 no effect, 100 complete control), 13 to 15 days
# Summary of the method: as §2
# [12] = tested on: large crabgrass; assay: Test B pre-/postemergence herbicide test; type: in vivo, Digitaria sanguinalis; details: for Crabgrass, Large plant response rating: postemergence, visual rating, scale 0 (no effect) to 100 (complete control)
# Summary of the method: as §3
# [13] = tested on: barnyardgrass; assay: Test B pre-/postemergence herbicide test; type: in vivo, Echinochloa crus-galli; details: for Barnyardgrass plant response rating: postemergence, visual rating, scale 0 (no effect) to 100 (complete control)
# Summary of the method: (§4)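 Flooded paddy rice and barnyardgrass were treated at the 2-leaf stage; upland plantings received compound either on sown seed or on 1- to 4-leaf seedlings. All were kept 13–15 days in a greenhouse and scored visually, 0–100, relative to untreated plants.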
# [14] = tested on: giant foxtail; assay: Test B pre-/postemergence herbicide test; type: in vivo, Setaria faberi; details: for Foxtail, Giant plant response rating: postemergence, visual rating, scale 0 (no effect) to 100 (complete control)
# Summary of the method: as §3
# [15] = tested on: wheat; assay: Test B postemergence herbicide test; type: in vivo, Triticum aestivum; set-up: key to Wheat plant response rating: 0 = no effect, 100 = complete control; details: postemergence, visual rating, scale 0 (no effect) to 100 (complete control)
# Summary of the method: (§5)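 Visual ratings, 0 (no effect) to 100 (complete control), made versus controls after 13–15 d greenhouse. Paddy plants treated at 2-leaf stage; postemergence plants at 1- to 4-leaf stage, 2–18 cm tall.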
# [16] = tested on: corn; assay: Test B pre-/postemergence herbicide test; type: in vivo, Zea mays; details: for Corn plant response rating: postemergence, visual rating, scale 0 (no effect) to 100 (complete control)
# Summary of the method: as §3
# [17] = tested on: wild oat; assay: Test B postemergence herbicide test; type: in vivo, Avena fatua; details: postemergence, visual rating, scale 0 (no effect) to 100 (complete control)
# Summary of the method: as §5
# [18] = tested on: morningglory; assay: Test B pre-/postemergence herbicide test; type: in vivo, Ipomoea coccinea; details: for Morningglory plant response rating: postemergence, visual rating, scale 0 (no effect) to 100 (complete control)
# Summary of the method: as §4
# [19] = tested on: Surinam grass; assay: Test B pre-/postemergence herbicide test; type: in vivo, Urochloa decumbens; details: for Surinam Grass plant response rating: postemergence, visual rating, scale 0 (no effect) to 100 (complete control)
# Summary of the method: as §3
# [20] = tested on: giant foxtail; assay: Test A pre-/postemergence herbicide test; type: in vivo, Setaria faberi
# Summary of the method: as §1
# [21] = tested on: redroot pigweed; assay: Test A pre-/postemergence herbicide test; type: in vivo, Amaranthus retroflexus
# Summary of the method: as §1
# [22] = tested on: cocklebur; assay: Test B pre-/postemergence herbicide test; type: in vivo, Xanthium strumarium; details: for Cocklebur plant response rating: postemergence, visual rating, scale 0 (no effect) to 100 (complete control)
# Summary of the method: as §4
# [23] = tested on: velvetleaf; assay: Test B pre-/postemergence herbicide test; type: in vivo, Abutilon theophrasti; details: for Velvetleaf plant response rating: postemergence, visual rating, scale 0 (no effect) to 100 (complete control)
# Summary of the method: as §3
# [24] = Postemergence, 500 g ai/ha, 0 to 100 scale, 0 no effect, 100 complete control
# [25] = Postemergence, 2000 g ai/ha, 0 to 100 scale, 0 no effect, 100 complete control
# [26] = Preemergence, 2000 g ai/ha, visual rating, 0 to 100 scale (0 no effect, 100 complete control)
# [27] = preemergence, 500 g ai/ha, visual injury, 0 to 100 scale (0 no effect, 100 complete control)
# [28] = 125 g ai/ha, 0 = no effect, 100 = complete control, preemergence
# [29] = 500 g ai/ha, visual rating 0-100, 0 no effect, 100 complete control, preemergence
smiles,measurement,setting,value
CC(=O)c1cccc(NC(=O)c2sc(C(C)(C)C)nc2C)c1 [Compound 196],"Crabgrass, Large plant response rating",[1]; [24],0
same,"Plant response rating, Crabgrass, Large",[1]; [25],0
same,"Crabgrass, Large plant response rating",[1]; [26],50
same,"Crabgrass, Large plant response rating",[1]; [27],25
same,Morningglory plant response rating,[2]; [24],5
same,"Plant response rating, Morningglory",[2]; [25],0
same,Morningglory plant response rating,[2]; [26],10
same,Morningglory plant response rating,[2]; [27],0
same,Blackgrass plant response rating,[3]; 125 g ai/ha,0
same,Blackgrass plant response rating,[3]; 500 g ai/ha,0
same,Rice plant response rating,[4],0
same,Lambsquarters plant response rating (0 to 100 scale),[5]; [28],0
same,"Plant response rating, Lambsquarters",[5]; [29],0
same,Lambsquarters plant response rating,[5]; 125 g ai/ha,0
same,Lambsquarters plant response rating,[5]; 500 g ai/ha,30
same,"Sedge, Umbrella plant response rating",[6],30
same,Barnyardgrass plant response rating,[7]; [24],0
same,"Plant response rating, Barnyardgrass",[7]; [25],30
same,Barnyardgrass plant response rating,[7]; [26],55
same,Barnyardgrass plant response rating,[7]; [27],15
same,Pigweed plant response rating (0 to 100 scale),[8]; [28],0
same,"Plant response rating, Pigweed",[8]; [29],0
same,Pigweed plant response rating,[8]; 125 g ai/ha,10
same,Pigweed plant response rating,[8]; 500 g ai/ha,30
same,Barnyardgrass plant response rating,[9],20
same,Velvetleaf plant response rating,[10]; [24],0
same,"Plant response rating, Velvetleaf",[10]; [25],0
same,Velvetleaf plant response rating,[10]; [26],0
same,Velvetleaf plant response rating,[10]; [27],0
same,Ducksalad plant response rating,[11],30
same,"Crabgrass, Large plant response rating (0 to 100 scale)",[12]; [28],0
same,"Plant response rating, Crabgrass, Large",[12]; [29],100
same,"Crabgrass, Large plant response rating",[12]; 125 g ai/ha,30
same,"Crabgrass, Large plant response rating",[12]; 500 g ai/ha,30
same,Barnyardgrass plant response rating (0 to 100 scale),[13]; [28],0
same,"Plant response rating, Barnyardgrass",[13]; [29],40
same,Barnyardgrass plant response rating,[13]; 125 g ai/ha,0
same,Barnyardgrass plant response rating,[13]; 500 g ai/ha,30
same,"Foxtail, Giant plant response rating (0 to 100 scale)",[14]; [28],0
same,"Plant response rating, Foxtail, Giant",[14]; [29],0
same,"Foxtail, Giant plant response rating",[14]; 125 g ai/ha,0
same,"Foxtail, Giant plant response rating",[14]; 500 g ai/ha,0
same,Wheat plant response rating,[15]; 125 g ai/ha,0
same,Wheat plant response rating,[15]; 500 g ai/ha,0
same,Corn plant response rating (0 to 100 scale),[16]; [28],0
same,"Plant response rating, Corn",[16]; [29],0
same,Corn plant response rating,[16]; 125 g ai/ha,0
same,Corn plant response rating,[16]; 500 g ai/ha,10
same,"Oat, Wild plant response rating",[17]; 125 g ai/ha,0
same,"Oat, Wild plant response rating",[17]; 500 g ai/ha,0
same,Morningglory plant response rating (0 to 100 scale),[18]; [28],0
same,"Plant response rating, Morningglory",[18]; [29],0
same,Morningglory plant response rating,[18]; 125 g ai/ha,0
same,Morningglory plant response rating,[18]; 500 g ai/ha,0
same,Surinam Grass plant response rating (0 to 100 scale),[19]; [28],0
same,"Plant response rating, Surinam Grass",[19]; [29],0
same,Surinam Grass plant response rating,[19]; 125 g ai/ha,0
same,Surinam Grass plant response rating,[19]; 500 g ai/ha,40
same,"Foxtail, Giant plant response rating",[20]; [24],0
same,"Plant response rating, Foxtail, Giant",[20]; [25],0
same,"Foxtail, Giant plant response rating",[20]; [26],20
same,"Foxtail, Giant plant response rating",[20]; [27],0
same,Pigweed plant response rating,[21]; [24],0
same,"Plant response rating, Pigweed",[21]; [25],0
same,Pigweed plant response rating,[21]; [26],15
same,Pigweed plant response rating,[21]; [27],0
same,Cocklebur plant response rating (0 to 100 scale),[22]; [28],0
same,"Plant response rating, Cocklebur",[22]; [29],0
same,Cocklebur plant response rating,[22]; 125 g ai/ha,0
same,Cocklebur plant response rating,[22]; 500 g ai/ha,20
same,Velvetleaf plant response rating (0 to 100 scale),[23]; [28],0
same,"Plant response rating, Velvetleaf",[23]; [29],20
same,Velvetleaf plant response rating,[23]; 125 g ai/ha,0
same,Velvetleaf plant response rating,[23]; 500 g ai/ha,0
